Assay results published in EPA's ToxRefDB 2.

Assays:
rat [1] = conditions: Fertility (Segment I), sprague dawley, Oral, Gavage/Intubation, dose end: 7 GD
rat [2] = conditions: Fertility (Segment I), sprague dawley, Oral, Gavage/Intubation, dose end: 7 GD; remark: listed apart in the source
rabbit [3] = conditions: Prenatal developmental toxicity study; new zealand white; Oral; Gavage/Intubation; dose end: 19 GD; group: maternal; systemic / in life observation / body weight / body weight gain + systemic / in life observation / clinical signs / alopecia + systemic / in…
rat [4] = conditions: Prenatal developmental toxicity study, sprague dawley, Oral, Gavage/Intubation, dose end: 17 GD
dog [5] = conditions: Chronic toxicity; beagle; Oral; Gavage/Intubation; dose end: 6 month; group: systemic; systemic / in life observation / body weight / body weight + systemic / in life observation / clinical signs / pulse/pressure + systemic / …
rat [6] = conditions: Chronic toxicity, sprague dawley, Oral, Gavage/Intubation, dose end: 6 month, group: systemic
rat [7] = conditions: Fertility (Segment I), sprague dawley, Oral, Gavage/Intubation, dose end: 56 day
rat [8] = conditions: Prenatal developmental toxicity study, sprague dawley, Oral, Gavage/Intubation, dose end: 17 GD; remark: listed apart in the source
rat [9] = conditions: Sub-acute repeat dose toxicity, sprague dawley, Oral, Gavage/Intubation, dose end: 28 day
rabbit [10] = conditions: Prenatal developmental toxicity study, new zealand white, Oral, Gavage/Intubation, dose end: 19 GD, group: maternal
dog [11] = conditions: Sub-acute repeat dose toxicity; beagle; Oral; Gavage/Intubation; dose end: 1 month; group: systemic; systemic / clinical chemistry / cholesterol / cholesterol + systemic / in life observation / body weight / body weight + systemic / in life …
dog [12] = conditions: Chronic toxicity; beagle; Oral; Capsule; dose end: 12 month; group: systemic; systemic / in life observation / body weight / body weight + systemic / in life observation / clinical signs / emaciation + systemic / in …
mouse [13] = conditions: Carcinogenicity; cd1; Oral; Feed; dose end: 78 week; group: systemic; systemic / in life observation / body weight / body weight + systemic / in life observation / body weight / body weight gain
rat [14] = conditions: Neurotoxicity screening battery; other; Oral; Feed; dose end: 11 month; group: cannot be grouped; systemic / in life observation / body weight / body weight
rat [15] = conditions: Prenatal developmental toxicity study, sprague dawley, Oral, Gavage/Intubation, dose end: 15 GD
hamster = conditions: Subchronic oral toxicity in rodents, golden syrian, Feed, dose end: 90 day, group: systemic
rat [16] = conditions: Subchronic oral toxicity in rodents, sprague-dawley, Feed, dose end: 90 day, group: systemic, systemic / organ weight / liver / absolute + systemic / organ weight / liver / relative to body weight + systemic / pathology microscopic / …
rat [17] = conditions: Multigenerational reproductive toxicity study, sprague dawley, Oral, Feed, dose end: 2 generation
rat [18] = conditions: Combined chronic toxicity/carcinogenicity; sprague dawley; Oral; Feed; dose end: 2 year; group: systemic; systemic / clinical chemistry / cholesterol / cholesterol + systemic / in life observation / body weight / body weight + systemic / in life …
dog [19] = conditions: Chronic toxicity, beagle, Oral, Feed, dose end: 52 week, group: cholinesterase
dog [20] = conditions: Chronic toxicity; beagle; Oral; Feed; dose end: 24 month; group: cholinesterase; cholinesterase / cholinesterase / cholinesterase / plasma cholinesterase (che)
rabbit [21] = conditions: Prenatal developmental toxicity study, Oral, Gavage/Intubation, dose end: 18 GD
rat [22] = conditions: Prenatal developmental toxicity study, other, Oral, Gavage/Intubation, dose end: 15 GD
mouse [23] = conditions: Carcinogenicity; cd1; Oral; Feed; dose end: 104 week; group: cholinesterase; cholinesterase / cholinesterase / cholinesterase / cholinesterase (che)
[24] = group: maternal, reproductive / reproductive performance / estrous cycle / abnormal
[25] = group: parental, systemic / in life observation / clinical signs / [other] + systemic / in life observation / body weight / body weight gain + systemic / in …
[26] = group: maternal, reproductive / offspring survival early / litter viability other / total litter loss + reproductive / reproductive performance / …
[27] = group: parental, systemic / in life observation / body weight / body weight gain + systemic / in life observation / clinical signs / abnormal motor movement…
[28] = group: developmental, systemic / in life observation / body weight / fetal weight
[29] = group: maternal, systemic / in life observation / body weight / body weight + systemic / in life observation / body weight / body weight gain + systemic / in…
[30] = systemic / clinical chemistry / alanine aminotransferase (alt/sgpt) / alanine aminotransferase (alt/sgpt) + systemic / clinical chemistry / …
[31] = systemic / in life observation / clinical signs / [other] + systemic / organ weight / uterus / absolute + systemic / organ weight / uterus…
[32] = group: maternal, reproductive / reproductive performance / estrous cycle / corpora lutea + reproductive / reproductive performance / implantations / …
[33] = group: parental, systemic / in life observation / body weight / body weight gain + systemic / in life observation / clinical signs / [other] + systemic / in …
[34] = group: developmental, developmental / developmental malformation / bone / incomplete ossification + systemic / in life observation / body weight / fetal weight
[35] = group: systemic, systemic / in life observation / clinical signs / excessive or spontaneous vocalization + systemic / organ weight / salivary glands / …
[36] = systemic / in life observation / body weight / body weight gain + systemic / in life observation / food consumption / food consumption
[37] = systemic / in life observation / body weight / body weight gain + systemic / in life observation / food consumption / food consumption + …
[38] = group: maternal, systemic / in life observation / body weight / body weight gain + systemic / in life observation / clinical signs / ataxia + systemic / in …
[39] = systemic / in life observation / body weight / body weight + systemic / in life observation / food consumption / food consumption
[40] = systemic / in life observation / body weight / body weight + systemic / in life observation / food consumption / food consumption + systemic…
[41] = group: offspring, systemic / in life observation / body weight / offspring (pup) weight
[42] = group: parental, systemic / pathology gross / kidney / discolored + systemic / pathology microscopic / kidney / casts granular + systemic / pathology …
[43] = cholinesterase / cholinesterase / cholinesterase / plasma cholinesterase (che)
[44] = cholinesterase / cholinesterase / cholinesterase / plasma cholinesterase (che) + cholinesterase / cholinesterase / cholinesterase / brain …
[45] = group: developmental, developmental / developmental malformation / bone / fused
[46] = group: maternal, systemic / in life observation / body weight / body weight gain + systemic / urinalysis / appearance and color / appearance and color
[47] = group: maternal, systemic / in life observation / body weight / body weight gain + systemic / urinalysis / appearance and color / appearance and color + …
[48] = group: developmental, developmental / developmental malformation / bone / delayed ossification
[49] = group: maternal, systemic / in life observation / clinical signs / hyperactivity

FC(F)(F)c1cccc(C2=CCN(CCc3ccc4ccncc4c3)CC2)c1
< 0.1 mg/kg/day: NEL (rat [1]; [24]) | NOAEL (rat [1]; [24]) | NEL (rat [1]; [25]) | NOAEL (rat [1]; [25]) | NEL (rat [2]; [24]) | NEL (rat [6]; [31]) | NEL (rat [7]; [33]) | NOAEL (rat [7]; [33]) | NEL (rat [9]; [35]) | NOAEL (rat [9]; [35])
> 0.25 mg/kg/day: LOAEL (dog [5])
> 7.5 mg/kg/day: LOAEL (rat [2]; [26]) | LOAEL (rat [2]; [27]) | LOAEL (rat [4]; [29]) | LOAEL (rat [6]; [30]) | LOAEL (rat [7]; [32]) | LOAEL (rat [8]; [29]) | LOAEL (rat [9]; [24])
≥ 0.05 mg/kg/day: NOAEL (rabbit [3]) | NOAEL (rabbit [10]; [37])
2.5 mg/kg/day: NEL (rat [4]; [28]) | NOAEL (rat [4]; [28]) | NEL (rat [8]; [34]) | NOAEL (rat [8]; [34])
1 mg/kg/day: LEL (rat [2]; group: parental, systemic / in life observation / body weight / body weight gain) | NEL (rat [7]; [32]) | LEL (rat [9]; [24])
≥ 0.25 mg/kg/day: NOAEL (dog [5])
0.01 mg/kg/day: LEL (rabbit [3]) | LEL (dog [5]) | LEL (rabbit [10]; [36]) | LEL (dog [11]) | LOAEL (dog [11])
> 0.05 mg/kg/day: LOAEL (rabbit [3]) | LOAEL (rabbit [10]; [37])
≥ 7.5 mg/kg/day: NOAEL (rat [2]; [26]) | NOAEL (rat [2]; [27]) | NOAEL (rat [4]; [29]) | NOAEL (rat [6]; [30]) | NOAEL (rat [7]; [32]) | NOAEL (rat [8]; [29]) | NOAEL (rat [9]; [24])
0.75 mg/kg/day: LEL (rat [4]; [29]) | LEL (rat [8]; [29])
< 0.75 mg/kg/day: NEL (rat [4]; [29]) | NEL (rat [8]; [29])
7.5 mg/kg/day: LEL (rat [4]; [28]) | LOAEL (rat [4]; [28]) | LEL (rat [7]; [32]) | LEL (rat [8]; [34]) | LOAEL (rat [8]; [34])
0.1 mg/kg/day: LEL (rat [1]; [24]) | LOAEL (rat [1]; [24]) | LEL (rat [1]; [25]) | LOAEL (rat [1]; [25]) | LEL (rat [2]; [24]) | NEL (rat [2]; [27]) | LEL (rat [6]; [31]) | LEL (rat [7]; [33]) | LOAEL (rat [7]; [33]) | NEL (rat [9]; [24]) | LEL (rat [9]; [35]) | LOAEL (rat [9]; [35])
< 0.01 mg/kg/day: NEL (rabbit [3]) | NEL (dog [5]) | NEL (rabbit [10]; [36]) | NEL (dog [11]) | NOAEL (dog [11])

CCN(CC)C(=O)c1cccc(C)c1 [DEET]
61 mg/kg/day: NEL (hamster; [40]) | NOAEL (hamster; [40])
500 mg/kg/day: NEL (mouse [13]) | NOAEL (mouse [13])
> 250 mg/kg/day: LOAEL (rat [14]) | LOAEL (rat [17]; [41])
750 mg/kg/day: LEL (rat [15]; [28]) | LOAEL (rat [15]; [28]) | LEL (rat [15]; [38]) | LOAEL (rat [15]; [38])
< 100 mg/kg/day: NEL (rat [16]) | NOAEL (rat [16])
100 mg/kg/day: NEL (dog [12]) | NOAEL (dog [12]) | NEL (rat [14]) | LEL (rat [16]) | LOAEL (rat [16]) | NEL (rat [17]; [41]) | NEL (rat [18]) | NOAEL (rat [18])
250 mg/kg/day: LEL (rat [14]) | NEL (rat [15]; [28]) | NOAEL (rat [15]; [28]) | NEL (rat [15]; [38]) | NOAEL (rat [15]; [38]) | LEL (rat [17]; [41])
1000 mg/kg/day: LEL (mouse [13]) | LOAEL (mouse [13])
304 mg/kg/day: LEL (hamster; [39]) | LOAEL (hamster; [39])
≥ 250 mg/kg/day: NOAEL (rat [14]) | NOAEL (rat [17]; [41])
400 mg/kg/day: LEL (dog [12]) | LOAEL (dog [12]) | LEL (rat [18]) | LOAEL (rat [18])
25 mg/kg/day: LEL (rat [17]; [42]) | LOAEL (rat [17]; [42])
< 25 mg/kg/day: NEL (rat [17]; [42]) | NOAEL (rat [17]; [42])

CCOP(=S)(OCC)SCSP(=S)(OCC)OCC [Ethion]
0.123 mg/kg/day: NEL (dog [20]) | NOAEL (dog [20])
0.026 mg/kg/day: NEL (dog [19]; [44]) | NOAEL (dog [19]; [44])
> 1.2 mg/kg/day: LOAEL (mouse [23])
≥ 1.2 mg/kg/day: NOAEL (mouse [23])
1.2 mg/kg/day: LEL (mouse [23])
2.4 mg/kg/day: NEL (rabbit [21]; [45]) | NOAEL (rabbit [21]; [45]) | LEL (rabbit [21]; [46]) | LOAEL (rabbit [21]; [46])
2.5 mg/kg/day: LEL (rat [22]; [48]) | LOAEL (rat [22]; [48]) | LEL (rat [22]; [49]) | LOAEL (rat [22]; [49])
0.22 mg/kg/day: NEL (mouse [23])
9.6 mg/kg/day: LEL (rabbit [21]; [45]) | LOAEL (rabbit [21]; [45])
0.403 mg/kg/day: LEL (dog [20]) | LOAEL (dog [20])
0.6 mg/kg/day: NEL (rabbit [21]; [47]) | NOAEL (rabbit [21]; [47]) | NEL (rat [22]; [48]) | NOAEL (rat [22]; [48]) | NEL (rat [22]; [49]) | NOAEL (rat [22]; [49])
0.049 mg/kg/day: LEL (dog [19]; [43]) | LOAEL (dog [19]; [43])
